What is called minimal effective concentration is the smallest amount tested that counted as effective. Higher therefore signals weaker potency. One may read the IC50 as the concentration at which inhibition is half-maximal.

One assay deals with P. multocida 46572. The assay is described as follows: In vivo mouse lung infection challenge model (murine efficacy), survival. On the set-up: species or system CD-1 female mice. The conditions noted are these: P. multocida 46572 intranasal challenge; 20 mg/kg subcutaneous; harmonized relative to vehicle (−) and M9 (+) controls. The method, then:
The challenge organism was P. multocida 46572. Target challenge concentration was 5×10^2 CFU/mouse. Isolated colonies from overnight growth (37° C. with 5% CO2) on trypticase soy agar (TSA II) blood plates were transferred to room temperature Brain Heart Infusion Broth (BHIB). The broth culture was incubated 3.5-4 hours to approximately mid-log phase of growth, as measured by forward light scatter at 600 nm (OD600, 0.200). The culture was centrifuged to collect the bacterial pellet. The pellet was re-suspended in BHIB and adjusted to provide an approximate concentration of 2.7 log 10 colony forming units (CFU) in 0.04 mL at the highest concentration. The challenge inoculum concentration was confirmed by serial dilutions of the inoculum for CFU enumeration. On Day −5, CD −1 female mice were received. Mice were given standard rodent diet and water ad libitum. On Day 0, bacterial inoculum (0.04 mL) was administered to each mouse (n=36) intranasally. Compounds of the invention were dosed at 20 mg/kg (0.1 mL) in a buffered (˜pH 5.4) propylene glycol, monothioglycerol and water solution by subcutaneous injection. Animals were observed from Days 1-10. The study was terminated on Day 10. In addition, some treatment groups were sampled at 6, 24, and 48 hours post bacterial challenge for RNA sequence analysis of lung tissue.
The murine efficacy model (P.multocida challenge) was optimized, and the treatment group size was powered to be able to observe statistically significant improvement of survival to expected ranges for immunomodulatory compounds. The experimental design was a randomized complete block design. Mice were individually identified and treatment groups comingled within a cage, with every treatment group equally represented across cages. Mortality was the primary variable. Mortality data was analyzed using a generalized mixed model with fixed effect of treatment and random effect of block. Survival time was also analyzed using the SAS PHREG (survival analysis) procedure to examine whether there were significant differences between treatment groups and the control group. Numerous compounds of the invention and M9 (positive control) were tested in this model at a dose of 20 mg/kg (Table 3). Typical percent survival for no treatment control is in the range of 0-20% based on study to study variation in challenge inoculum and rate of infection. […] Mouse survival for M9 was about 90-100%, further supporting its residual antibacterial properties against the bacterial strain.

The next assay concerns IL-1β. The assay is described as follows: Whole bovine blood assay, LPS-induced IL-1β (inhibition / overstimulation). The assay is classed as cell-based. The conditions noted are these: drug concentration giving overstimulation (OS) of LPS-induced IL-1β, top concentration 250 μM. The method, boiled down:
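Fresh heparinized bovine whole blood was preincubated with compound at varying concentrations for 4 h at 37 °C, then stimulated with 1 μg/mL LPS for 18 h. Plasma IL-1β was measured by MSD chemiluminescent immunoassay and normalized to total protein. Values cover inhibition and concentration-dependent overstimulation.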

The subject of a further assay is TNF-α. The assay is described as follows: Whole bovine blood assay, LPS-induced TNF-α. In kind it is cell-based. Conditions: fresh whole bovine blood, LPS stimulant, top drug concentration 250 μM. The essentials: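 Fresh heparinized bovine whole blood was preincubated with compound 4 h at 37 °C, then stimulated with LPS (final 1 μg/mL) for 18 h at 37 °C. Plasma TNF-α was quantified by MSD U-Plex chemiluminescent immunoassay, normalized to total protein (BCA), and IC50 taken for LPS-induced TNF-α inhibition.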

The test system of another assay is IL-6. The assay is described as follows: Whole bovine blood assay, LPS-induced IL-6. In kind it is cell-based. The conditions noted are these: fresh whole bovine blood, LPS stimulant; top drug concentration 250 μM.
The test system of assay [1] is BRD pathogens, M. haemolytica and P. multocida. The assay is described as follows: MIC screening panel, BRD pathogens (CLSI broth micro-dilution). In kind it is cell-based. Conditions: Table C; at least one BRD pathogenic strain; top concentration 64 μg/mL. The method, boiled down: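 MICs were determined by CLSI broth micro-dilution in cation-adjusted Mueller Hinton Broth at about 5×10^5 CFU/mL, with QC strains included. Incubation was 18-22 h at 35-37° C. in air, 5% CO2 or anaerobically (up to 48 h) depending on strain. BRD pathogens were first tested at a top concentration of 64 μg/mL in an eleven-point dilution series.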
(In general: In broth dilution the organism is exposed to a series of concentrations in liquid medium.)

Marks after values point to notes of the source that are not given here.

For the compound `CCCNC[C@@]1(O)[C@@H](C)OC(O[C@H]2[C@H](C)[C@@H](O[C@@H]3O[C@H](C)C[C@H](N(C)S(=O)(=O)c4ccccc4)[C@H]3Oc3ccccn3)[C@](C)(O)C[C@@H](C)CN[C@H](C)[C@@H](O)[C@](C)(O)[C@@H](CC)OC(=O)[C@@H]2C)C[C@]1(C)OC` (some centres unmarked) [Example B-130], in the assay with P. multocida 46572, the “% Survival” value came out at 42%. The minimal effective concentration in the assay with IL-1β came out at 6 µM.

Turning to `CCCNC[C@]1(O)[C@H](C)O[C@@H](O[C@H]2[C@H](C)[C@@H](O[C@@H]3O[C@H](C)C[C@H](N(C)S(=O)(=O)N(C)Cc4ccc(Cl)cc4)[C@H]3O)[C@](C)(O)C[C@@H](C)CN[C@H](C)[C@@H](O)[C@](C)(O)[C@@H](CC)OC(=O)[C@@H]2C)C[C@@]1(C)OC` [Example B-41], in the assay with P. multocida 46572, the “% Survival” value amounted to 52%. In addition, the minimal effective concentration in the assay with IL-1β is 6 µM.

Take `CCCNC[C@]1(O)[C@H](C)O[C@@H](O[C@H]2[C@H](C)[C@@H](O[C@@H]3O[C@H](C)C[C@H](N(C)S(=O)(=O)c4ccc(C(F)(F)F)cc4)[C@H]3O)[C@](C)(O)C[C@@H](C)CN[C@H](C)[C@@H](O)[C@](C)(O)[C@@H](CC)OC(=O)[C@@H]2C)C[C@@]1(C)OC` [Example B-14, N-((2S,3R,4S,6R)-2-(((2R,3S,4R,5R,8R,10R,11R,12S,13S,14R)-2-ethyl-3,4,10-trihydroxy-13-(((2R,4R,5S,6S)-5-hydroxy-4-methoxy-4,6-dimethyl-5-((propylamino)methyl)tetrahydro-2H-pyran-2-yl)oxy)-3,5,8,10,12,14-hexamethyl-15-oxo-1-oxa-6-azacyclopentadecan-11-yl)oxy)-3-hydroxy-6-methyltetrahydro-2H-pyran-4-yl)-N-methyl-4-(trifluoromethyl)benzenesulfonamide]: the “% Survival” value with P. multocida 46572 worked out at 16%.

`CC(=O)O.CCCN1C[C@H](C)C[C@@](C)(O)[C@H](O[C@@H]2O[C@H](C)C[C@H](N(C)S(=O)(=O)Nc3ccc(C(F)(F)F)cc3)[C@H]2O)[C@@H](C)[C@H](O[C@H]2C[C@@](C)(OC)[C@](O)(CN3CCCCC3)[C@H](C)O2)[C@@H](C)C(=O)O[C@H](CC)[C@@](C)(O)[C@H](O)[C@H]1C` [Example C-58, (2R,3S,4R,5R,8R,10R,11R,12S,13S,14R)-2-ethyl-3,4,10-trihydroxy-13-[(2R,4R,5S,6S)-5-hydroxy-4-methoxy-4,6-dimethyl-5-(piperidin-1-ylmethyl)oxan-2-yl]oxy-11-[(2S,3R,4S,6R)-3-hydroxy-6-methyl-4-[methyl-[[4-(trifluoromethyl)phenyl]sulfamoyl]amino]oxan-2-yl]oxy-3,5,8, 10, 12,14-hexamethyl-15-oxo-6-propyl-1-oxa-6-azacyclopentadecane, acetic acid]: the figures for the IC50 in the assay with TNF-α and with IL-6 were 9 µM and 13 µM, respectively. Also, the “MIC flag (*) for BRD pathogenic strains” value in assay [1] is on record as “C-58* (MIC ≤64 μg/mL for at least one BRD pathogenic strain)”. In the assay with IL-1β, this compound yielded a minimal effective concentration of 12 µM.

`CCCNC[C@]1(O)[C@H](C)O[C@@H](O[C@H]2[C@H](C)[C@@H](O[C@@H]3O[C@H](C)C[C@H](N(C)S(=O)(=O)N(C)c4ccc(C(F)(F)F)cc4)[C@H]3O)[C@](C)(O)C[C@@H](C)CN[C@H](C)[C@@H](O)[C@](C)(O)[C@@H](CC)OC(=O)[C@@H]2C)C[C@@]1(C)OC` [Example B-113, (2R,3S,4R,5R,8R,10R,11R,12S,13S,14R)-2-ethyl-3,4, 10-trihydroxy-13-[(2R,4R,5S,6S)-5-hydroxy-4-methoxy-4,6-dimethyl-5-(propylaminomethyl)oxan-2-yl]oxy-11-[(2S,3R,4S,6R)-3-hydroxy-6-methyl-4-[methyl-[methyl-[4-(trifluoromethyl)phenyl]sulfamoyl]amino]oxan-2-yl]oxy-3,5,8, 10, 12, 14-hexamethyl-1-oxa-6-azacyclopentadecan-15-one] displayed an IC50 in the assay with TNF-α (Bos taurus) of 7 µM. In the assay with P. multocida 46572, the “% Survival” value stood at 59%.

These data come from US20250236616A1, “IMMUNOMODULATING AZALIDES” (Zoetis Services LLC, priority 2021, published 2025).
